Source: patent US8906829B2, “Synergistic algicidal compositions including hydrazone derivatives and copper” (Dow AgroSciences LLC, priority 2010, dated 2014)

Experiments:
C. reinhardtii CC-1928 = assay: Effect of copper on activity of hydrazones: in vitro growth inhibition of C. reinhardtii in TAP Cu minus / TAP Cu plus medium (Example 10); format: cell-based, Chlamydomonas reinhardtii; settings: for inhibition of growth at 1 µg/mL: Chlamydomonas reinhardtii, TAP Cu minus medium, read-out: % Inhn. Minus Copper Observed; for inhibition of growth at 1 µg/mL / % Inhn. Plus Copper Observed: test compound 1 μg/mL, 48 h; for % Inhn. Plus Copper Observed: TAP Cu plus medium (CuCl2); for % Inhn. by copper chloride alone: CuCl2, 10 μM, TAP Cu plus vs TAP Cu minus without test compound, across experiments
In short: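 Washed cells (suspension 2×10^5 spores per mL) added to compound at 1 μg/mL in Chelex-treated TAP Cu minus or TAP Cu plus (20 μM CuCl2). After 48 h at 27 °C, growth read by light scattering; % inhibition vs compound-free wells, plus-Cu predicted values by Colby formula from minus-Cu data.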

C. reinhardtii = assay: Growth inhibition of C. reinhardtii by hydrazones and isolated metal-hydrazone complexes, TAP Cu minus medium (Example 12); format: cell-based, Chlamydomonas reinhardtii; settings: for inhibition of growth at 1 µg/mL: Chlamydomonas reinhardtii, parent hydrazone 1 μg/mL, read-out: Hydrazone % Inhn.; for Complex % Inhn.: isolated metal complex 1 μg/mL
Method: In vitro toxicity assays against C. reinhardtii CC-1928 (wild type mt+137c green in dark subclone) obtained from the Chlamydomonas Resource Center at Duke University were conducted using TAP liquid growth medium described by Gorman and Levine Proc. Natl. Acad. Sci. USA 1965, 54, 1665-1669 except that CuSO4.5H2O, normally included as a component of Hutner's trace element stock solution (Hutner et al. Proc. Am. Philos. Soc. 1950, 94, 152-170), was omitted. The TAP medium lacking Cu (TAP Cu minus) was prepared by adding 400 mg NH4Cl, 10 mL of 100× Tris-Acetate (242 g Tris-base and 100 mL glacial acetic acid in 1000 mL milli Q water), and 8.3 mL of 120.5× phosphate buffer (14.34 g K2HPO4 and 7.26 g KH2PO4 in 1000 mL milli Q water) to milli Q water to make a total volume of 1 liter. The medium was treated with 0.5 g Chelex 100 resin (Bio-Rad Analytical grade, 50-100 mesh, sodium form, cat#142-2822) by stirring at room temperature for 1 hour. 900 mL were decanted and 45.9 mg of CaCl2.2H2O, 90 mg of MgSO4.7H2O and 0.9 mL Hutner's trace elements lacking CuSO4.5H2O were added and the solution was filter-sterilized. Medium containing copper (TAP Cu plus) was prepared by adding CuCl2.2H2O to the TAP Cu minus medium at 20 μM. Test compounds were dissolved in dimethylsulfoxide (DMSO) at 2 mg/mL then dilutions in TAP Cu minus and TAP Cu plus media were prepared in sterilized microcentrifuge tubes at 2 μg/mL. 100 μL aliquots of diluted compound were dispensed into flat-bottomed 96-well microtiter plates. C. reinhardtii was maintained under 12 h of light on TAP agar plates at 18° C. A loopful of cells was added to 50 mL of TAP Cu minus medium and the culture incubated with shaking at 200 rpm at 27° C. for 24 h. The culture (10 to 20 mL aliquot) was centrifuged in a bench centrifuge at 2000 rpm for 2 min. The resulting cell pellet was resuspended in 5 mL sterile milli Q water (which had been treated with Chelex 100 resin using 0.5 g resin per liter of water by stirring at room temperature for 1 h), and recentrifuged. The cells were resuspended in TAP Cu minus medium, and the suspension adjusted to 2×10^5 spores per mL. Microtiter plates containing compounds as described above were inoculated with 100 μL of this cell suspension and the plates incubated at 27° C. for 48 h before assessing algal growth by measuring light scattering in a NepheloStar plate-reader. Growth inhibition was determined by comparing growth in the presence of test compound with growth in control wells lacking test compound. Hydrazones and their isolated metal complexes were compared with respect to their in vitro activity toward C. reinhardtii and the cyanobacterium (blue-green alga) Synechocystis sp. strain 6803. Metal complexes of hydrazones were prepared by precipitation from ethanol with various metal salts at 1:1, 2:1 or 3:1 molar ratios, as described in general by Ainscough, Brodie, Dobbs, Ranford, and Waters (Inorganica Chimica Acta 1998, 267, 27-38, which is expressly incorporated by reference herein). In vitro assays against C. reinhardtii were conducted as described in Example 10 using TAP Cu minus medium. Growth inhibition was determined by comparing growth in the presence of test compound with growth in control wells lacking test compound. Results for growth inhibition of C. reinhardtii by hydrazones and corresponding isolated metal complexes (each at 1 μg/mL) are shown in Table 6.

SMILES | inhibition of growth at 1 µg/mL (C. reinhardtii CC-1928) [%] | % Inhn. Plus Copper Observed (C. reinhardtii CC-1928) [%] | inhibition of growth at 1 µg/mL (C. reinhardtii) [%] | Complex % Inhn. (C. reinhardtii) [%] | % Inhn. by copper chloride alone (C. reinhardtii CC-1928) [%] | % Inhn. by copper chloride alone (C. reinhardtii CC-1928; listed as Copper chloride)
O=C(N/N=C/c1cc(Cl)cc(Cl)c1O)c1ccccc1 [Compound 1] | 16 | 96 | 16 | – | – | –
C/C(=N\NC(=O)c1ccccc1)c1cc(Cl)cc(Cl)c1O [Compound 6] | 13 | 98 | 13 | – | – | –
O=C(N/N=C/c1cc(Cl)cc(Cl)c1O)c1ccccc1O [Compound 7] | 29 | 94 | 29 | – | – | –
C/C(=N\NC(=O)c1ccc(Cl)cc1)c1cc(Cl)cc(Cl)c1O [Compound 12] | 4 | 96 | 4 | – | – | –
O=C(N/N=C/c1cc(Cl)cc(Br)c1O)c1ccccc1 [Compound 14] | 6 | 97 | 6 | – | – | –
O=C(N/N=C/c1cc(Cl)cc(Br)c1O)c1ccc(Cl)cc1 [Compound 15] | 11 | 97 | 11 | – | – | –
O=C(N/N=C/c1cc(Cl)cc(Br)c1O)c1ccccc1O [Compound 18] | 13 | 95 | 13 | – | – | –
O=C(N/N=C/c1ccc(Cl)c(Cl)c1O)c1ccccc1 [Compound 21] | 6 | 94 | 6 | – | – | –
C/C(=N\NC(=O)c1cccc(C)c1)c1cc(Cl)cc(Cl)c1O [Compound 25, 3-methyl-benzoic acid [1-(3,5-dichloro-2-hydroxyphenyl)-ethylidene]-hydrazide] | 33 | 95 | 33 | – | – | –
C/C(=N\NC(=O)c1ccc(C)cc1)c1cc(Cl)cc(Cl)c1O [Compound 26] | 5 | 94 | – | – | – | –
O=C(N/N=C/c1cc(Cl)cc(C(F)(F)F)c1O)c1ccccc1 [Compound 27] | 30 | 96 | 30 | – | – | –
O=C(N/N=C/c1cc(C(F)(F)F)cc(C(F)(F)F)c1O)c1ccc(Cl)cc1 [Compound 32] | 21 | 97 | 21 | – | – | –
O=C(N/N=C/c1c(Cl)ccc(Cl)c1O)c1ccc(Cl)cc1 [Compound 45] | 9 | 96 | 9 | – | – | –
O=C(N/N=C/c1cccc(Cl)c1O)c1ccc(Cl)cc1 [Compound 52] | -4 | 88 | -4 | – | – | –
O=C(N/N=C/c1c(C(F)(F)F)ccc(Cl)c1O)c1ccc(Cl)cc1 [Compound 56] | 11 | 97 | 11 | – | – | –
Cc1ccccc1C(=O)N/N=C/c1cc(Cl)cc(Cl)c1O [Compound 63] | -18 | 93 | -18 | – | – | –
CC(=O)[O-].CC(=O)[O-].O=C(N/N=C/c1cc(Cl)cc(Cl)c1O)c1ccccc1.[Cu+2] [Compound 72] | – | – | – | 96 | – | –
CC(=O)[O-].CC(=O)[O-].O=C(N/N=C/c1cc(Cl)cc(Cl)c1O)c1ccccc1.O=C(N/N=C/c1cc(Cl)cc(Cl)c1O)c1ccccc1.[Cu+2] [Compound 73] | – | – | – | 96 | – | –
O=C(N/N=C/c1cc(Cl)cc(Cl)c1O)c1ccccc1.O=C(N/N=C/c1cc(Cl)cc(Cl)c1O)c1ccccc1.O=S(=O)([O-])[O-].[Cu+2] [Compound 74] | – | – | – | 96 | – | –
O=C(N/N=C/c1cc(Cl)cc(Cl)c1O)c1ccccc1.[Cl-].[Cl-].[Cu+2] [Compound 75] | – | – | – | 95 | – | –
O=C(N/N=C/c1cc(Cl)cc(Cl)c1O)c1ccccc1.O=C(N/N=C/c1cc(Cl)cc(Cl)c1O)c1ccccc1.[Cl-].[Cl-].[Cu+2] [Compound 76] | – | – | – | 75 | – | –
O=C(N/N=C/c1cc(Cl)cc(Cl)c1O)c1ccccc1.O=C(N/N=C/c1cc(Cl)cc(Cl)c1O)c1ccccc1.[Cl-].[Cl-].[Mn+2] [Compound 77] | – | – | – | −1 | – | –
O=C(NN=Cc1cc(Cl)cc(Cl)c1O)c1ccccc1.O=C(NN=Cc1cc(Cl)cc(Cl)c1O)c1ccccc1.[Cl-].[Cl-].[Zn+2] [Compound 78] | – | – | – | −5 | – | –
[Cl][Cu][Cl] [CuCl2, Copper chloride, reference compound] | – | – | – | – | −11.7 ± 6.0 | slight enhancement of growth
